# Test results reported in ChEMBL document CHEMBL4346676, “Base promoted synthesis of novel indole-dithiocarbamate compounds as potential anti-inflammatory therapeutic agents for treatment of acute lung injury” (Eur J Med Chem, 2019).
# The source made the active and inactive calls. The rule behind the calls is not given here.
# Key:
# [1] = system: Peritoneal macrophage; test: Cytotoxicity against C57BL/6J mouse Primary peritoneal macrophages assessed as cell viability at 1 uM measured after 24 hrs by MTT assay; type: cell-based
# [2] = system: Peritoneal macrophage; test: Antiinflammatory activity in C57BL/6J mouse Primary peritoneal macrophages assessed as suppression of LPS-stimulated TNF-alpha expression at 1 uM preincubated for 30 mins followed by LPS stimulation measured after 24 hrs by ELISA; type: functional, cell-based
# [3] = system: Peritoneal macrophage; test: Antiinflammatory activity in C57BL/6J mouse Primary peritoneal macrophages assessed as suppression of LPS-stimulated IL-6 expression at 1 uM preincubated for 30 mins followed by LPS stimulation measured after 24 hrs by ELISA; type: functional, cell-based
# [4] = system: Peritoneal macrophage; test: Antiinflammatory activity in C57BL/6J mouse Primary peritoneal macrophages assessed as inhibition of LPS-stimulated TNF-alpha expression preincubated for 30 mins followed by LPS stimulation measured after 24 hrs by ELISA; type: functional, cell-based
# [5] = system: Peritoneal macrophage; test: Antiinflammatory activity in C57BL/6J mouse Primary peritoneal macrophages assessed as inhibition of LPS-stimulated IL-6 expression preincubated for 30 mins followed by LPS stimulation measured after 24 hrs by ELISA; type: functional, cell-based
# [6] = system: Mus musculus; test: Antiinflammatory activity in LPS-induced C57BL/6 mouse model of acute lung injury assessed as reduction in lung wet/dry ratio at 2.5 to 5 mg/kg, po pretreated for 3 days followed by LPS challenge measured after 6 hrs; type: functional, organism-based
# [7] = system: Mus musculus; test: Antiinflammatory activity in LPS-induced C57BL/6 mouse model of acute lung injury assessed as reduction in total protein levels in BALF at 2.5 to 5 mg/kg, po pretreated for 3 days followed by LPS challenge measured after 6 hrs; type: functional, organism-based
# [8] = system: Mus musculus; test: Antiinflammatory activity in LPS-induced C57BL/6 mouse model of acute lung injury assessed as inhibition of inflammatory cell infiltration at 2.5 to 5 mg/kg, po pretreated for 3 days followed by LPS challenge measured after 6 hrs by hematoxylin and eosin staining based microscopic analysis; type: functional, organism-based
# [9] = system: Mus musculus; test: Antiinflammatory activity in LPS-induced C57BL/6 mouse model of acute lung injury assessed as inhibition of interstitial edema at 2.5 to 5 mg/kg, po pretreated for 3 days followed by LPS challenge measured after 6 hrs by hematoxylin and eosin staining based microscopic analysis; type: functional, organism-based
# [10] = system: Mus musculus; test: Antiinflammatory activity in LPS-induced C57BL/6 mouse model of acute lung injury assessed as inhibition of interalveolar septal thickening at 2.5 to 5 mg/kg, po pretreated for 3 days followed by LPS challenge measured after 6 hrs by hematoxylin and eosin staining based microscopic analysis; type: functional, organism-based
# [11] = system: Mus musculus; test: Antiinflammatory activity in LPS-induced C57BL/6 mouse model of acute lung injury assessed as inhibition of destruction of alveolar structure at 2.5 to 5 mg/kg, po pretreated for 3 days followed by LPS challenge measured after 6 hrs by hematoxylin and eosin staining based microscopic analysis; type: functional, organism-based
# [12] = system: Mus musculus; test: Antiinflammatory activity in LPS-induced C57BL/6 mouse model of acute lung injury assessed as inhibition of destruction of alveolar hemorrhage at 2.5 to 5 mg/kg, po pretreated for 3 days followed by LPS challenge measured after 6 hrs by hematoxylin and eosin staining based microscopic analysis; type: functional, organism-based
# [13] = system: Mus musculus; test: Antiinflammatory activity in LPS-induced C57BL/6 mouse model of acute lung injury assessed as suppression of macrophage infiltration at 2.5 to 5 mg/kg, po pretreated for 3 days followed by LPS challenge measured after 6 hrs by F4/80/hematoxylin staining based microscopic analysis; type: functional, organism-based
# [14] = system: Mus musculus; test: Antiinflammatory activity in LPS-induced C57BL/6 mouse model of acute lung injury assessed as reduction in neutrophil count in BALF at 2.5 to 5 mg/kg, po pretreated for 3 days followed by LPS challenge measured after 6 hrs; type: functional, organism-based
# [15] = system: Mus musculus; test: Antiinflammatory activity in LPS-induced C57BL/6 mouse model of acute lung injury assessed as reduction in IL-6 level in BALF at 2.5 to 5 mg/kg, po pretreated for 3 days followed by LPS challenge measured after 6 hrs; type: functional, organism-based
# [16] = system: Mus musculus; test: Antiinflammatory activity in LPS-induced C57BL/6 mouse model of acute lung injury assessed as reduction in IL-6 level in serum at 2.5 to 5 mg/kg, po pretreated for 3 days followed by LPS challenge measured after 6 hrs; type: functional, organism-based
# [17] = system: Mus musculus; test: Antiinflammatory activity in LPS-induced C57BL/6 mouse model of acute lung injury assessed as reduction in TNF-alpha level in BALF at 2.5 to 5 mg/kg, po pretreated for 3 days followed by LPS challenge measured after 6 hrs; type: functional, organism-based
# [18] = system: Mus musculus; test: Antiinflammatory activity in LPS-induced C57BL/6 mouse model of acute lung injury assessed as reduction in TNF-alpha level in serum at 2.5 to 5 mg/kg, po pretreated for 3 days followed by LPS challenge measured after 6 hrs; type: functional, organism-based
# [19] = system: Mus musculus; test: Antiinflammatory activity in LPS-induced C57BL/6 mouse model of acute lung injury assessed as reduction in total protein level in BALF at 2.5 to 5 mg/kg, po pretreated for 3 days followed by LPS challenge measured after 6 hrs; type: functional, organism-based
# [20] = system: Mus musculus; test: Antiinflammatory activity in LPS-induced C57BL/6 mouse model of acute lung injury assessed as reduction in ICAM1 mRNA expression at 2.5 to 5 mg/kg, po pretreated for 3 days followed by LPS challenge measured after 6 hrs by SYBR green dye based RT-qPCR analysis; type: functional, organism-based
# [21] = system: Mus musculus; test: Antiinflammatory activity in LPS-induced C57BL/6 mouse model of acute lung injury assessed as reduction in VCAM1 mRNA expression at 2.5 to 5 mg/kg, po pretreated for 3 days followed by LPS challenge measured after 6 hrs by SYBR green dye based RT-qPCR analysis; type: functional, organism-based
# [22] = system: Mus musculus; test: Antiinflammatory activity in LPS-induced C57BL/6 mouse model of acute lung injury assessed as reduction in IL-1beta mRNA expression at 2.5 to 5 mg/kg, po pretreated for 3 days followed by LPS challenge measured after 6 hrs by SYBR green dye based RT-qPCR analysis; type: functional, organism-based
# [23] = system: Mus musculus; test: Antiinflammatory activity in LPS-induced C57BL/6 mouse model of acute lung injury assessed as reduction in TNF-alpha mRNA expression at 2.5 to 5 mg/kg, po pretreated for 3 days followed by LPS challenge measured after 6 hrs by SYBR green dye based RT-qPCR analysis; type: functional, organism-based
# [24] = system: Mus musculus; test: Antiinflammatory activity in LPS-induced C57BL/6 mouse model of acute lung injury assessed as reduction in IL-6 mRNA expression at 2.5 to 5 mg/kg, po pretreated for 3 days followed by LPS challenge measured after 6 hrs by SYBR green dye based RT-qPCR; type: functional, organism-based
# [25] = system: Mus musculus; test: Antiinflammatory activity in po dosed C57BL/6 mouse model of acute lung injury assessed as reduction in LPS-stimulated ICAM1 mRNA expression pretreated for 3 days followed by LPS challenge measured after 6 hrs by SYBR green dye based RT-qPCR analysis; type: functional, organism-based
# [26] = system: Mus musculus; test: Antiinflammatory activity in po dosed C57BL/6 mouse model of acute lung injury assessed as reduction in LPS-stimulated VCAM1 mRNA expression pretreated for 3 days followed by LPS challenge measured after 6 hrs by SYBR green dye based RT-qPCR analysis; type: functional, organism-based
# [27] = system: Mus musculus; test: Antiinflammatory activity in po dosed C57BL/6 mouse model of acute lung injury assessed as reduction in LPS-stimulated IL-1beta mRNA expression pretreated for 3 days followed by LPS challenge measured after 6 hrs by SYBR green dye based RT-qPCR; type: functional, organism-based
# [28] = system: Mus musculus; test: Antiinflammatory activity in po dosed C57BL/6 mouse model of acute lung injury assessed as reduction in LPS-stimulated TNF-alpha mRNA expression pretreated for 3 days followed by LPS challenge measured after 6 hrs by SYBR green dye based RT-qPCR; type: functional, organism-based
# [29] = system: Mus musculus; test: Antiinflammatory activity in po dosed C57BL/6 mouse model of acute lung injury assessed as reduction in LPS-stimulated IL-6 mRNA expression pretreated for 3 days followed by LPS challenge measured after 6 hrs by SYBR green dye based RT-qPCR; type: functional, organism-based
structure (smiles),measurement,setting,value
CN(C)C(=S)Sn1ccc2ccccc21,Activity,[1],Non-Toxic
CN1CCN(C(=S)Sn2ccc3ccccc32)CC1,Activity,[1],Non-Toxic
S=C(Sn1ccc2ccccc21)N1CCSCC1,inhibition,[2],Active
same,inhibition,[3],Active
same,Activity,[1],Non-Toxic
same,IC50,[4],14.1 nM
same,inhibition,[4],Dose-dependent effect
same,IC50,[5],87.4 nM
same,inhibition,[5],Dose-dependent effect
CCOC(=O)C1CCCN(C(=S)Sn2ccc3ccccc32)C1 (configuration not stated),Activity,[1],Non-Toxic
COc1cccc2ccn(SC(=S)N(C)C)c12,Activity,[1],Non-Toxic
S=C(Sn1ccc2ccccc21)N1CCCC1,Activity,[1],Non-Toxic
COC(=O)c1ccc2ccn(SC(=S)N(C)C)c2c1,Activity,[1],Non-Toxic
Cc1ccc2c(c1)cc(C)n2SC(=S)N(C)C,Activity,[1],Non-Toxic
CN(C)C(=S)Sn1ccc2c(Br)cccc21,Activity,[1],Non-Toxic
CCN(CC)C(=S)Sn1c(C)cc2ccccc21,Activity,[1],Non-Toxic
Cc1ccc2ccn(SC(=S)N(C)C)c2c1,Activity,[1],Non-Toxic
CN(C)C(=S)Sn1ccc2ccc(N)cc21,Activity,[1],Non-Toxic
S=C(Sn1ccc2ccccc21)N(Cc1ccccc1)Cc1ccccc1,Activity,[1],Non-Toxic
CN(C)C(=S)Sn1ccc2cc(F)ccc21,Activity,[1],Non-Toxic
Cc1c(C)n(SC(=S)N(C)C)c2ccccc12,Activity,[1],Non-Toxic
S=C(Sn1ccc2ccccc21)N1CCc2ccccc2C1,Activity,[1],Non-Toxic
COc1ccc2c(ccn2SC(=S)N(C)C)c1,Activity,[1],Non-Toxic
S=C(Sn1ccc2ccccc21)N1CCC(Cc2ccccc2)CC1,Activity,[1],Non-Toxic
S=C(Sn1ccc2ccccc21)N1CCOCC1,Activity,[1],Non-Toxic
COc1cccc2c1ccn2SC(=S)N(C)C,inhibition,[2],Active
same,inhibition,[3],Active
same,Activity,[1],Non-Toxic
same,IC50,[4],107 nM
same,inhibition,[4],Dose-dependent effect
same,IC50,[5],70.7 nM
same,inhibition,[5],Dose-dependent effect
Cc1cc2ccccc2n1SC(=S)N(C)C,Activity,[1],Non-Toxic
Cc1cn(SC(=S)N(C)C)c2ccccc12,inhibition,[2],Active
same,inhibition,[3],Active
same,Activity,[1],Non-Toxic
same,IC50,[4],28.1 nM
same,inhibition,[4],Dose-dependent effect
same,IC50,[5],14.6 nM
same,inhibition,[5],Dose-dependent effect
same,Activity,[6],Active
same,Activity,[7],Active
same,Activity,[8],Active
same,Activity,[9],Active
same,Activity,[10],Active
same,Activity,[11],Active
same,Activity,[12],Active
same,Activity,[13],Active
same,Activity,[14],Active
same,Activity,[15],Active
same,Activity,[16],Active
same,Activity,[17],Active
same,Activity,[18],Active
same,Activity,[19],Active
same,inhibition,[20],Active
same,inhibition,[21],Active
same,inhibition,[22],Active
same,inhibition,[23],Active
same,inhibition,[24],Active
same,inhibition,[25],Dose-dependent effect
same,inhibition,[26],Dose-dependent effect
same,inhibition,[27],Dose-dependent effect
same,inhibition,[28],Dose-dependent effect
same,inhibition,[29],Dose-dependent effect
S=C(Sn1ccc2ccccc21)N1CCCCC1,Activity,[1],Non-Toxic
CN(C)C(=S)Sn1ccc2cc(Cl)ccc21,Activity,[1],Non-Toxic
CC1CCCC(C)N1C(=S)Sn1ccc2ccccc21 (configuration not stated),Activity,[1],Non-Toxic
S=C(Sn1ccc2ccccc21)N1CCCCCC1,inhibition,[2],Active
same,inhibition,[3],Active
same,Activity,[1],Non-Toxic
same,IC50,[4],114 nM
same,inhibition,[4],Dose-dependent effect
same,IC50,[5],87.6 nM
same,inhibition,[5],Dose-dependent effect
CN(C)C(=S)Sn1ccc2cc(Br)ccc21,Activity,[1],Non-Toxic
CCN(CC)C(=S)Sn1ccc2ccccc21,Activity,[1],Non-Toxic
CC1CCN(C(=S)Sn2ccc3ccccc32)CC1,Activity,[1],Non-Toxic
